From paper PMC5993640 (European journal of medicinal chemistry, 2018) come the findings set out here.

Where “and” joins values, the source holds several entries; their conditions need not be identical. Identical values can stand only once. Like-named read-outs stand apart in the source and are kept apart here.

Series [1] concerns HIV-1HXB2 WT and Env gp120 mutated pseudoviruses. Nature of the series: microbe, parasite or virus in culture. In kind it is cell-based. As to conditions: Human immunodeficiency virus 1, U87.CD4.CXCR4.
The nature of series [2]: Aqueous solubility. The class given is physicochemical. As to conditions: universal aqueous buffer.
For series [3], the target named is hERG potassium channel (Homo sapiens, UniProt Q12809). Nature of the series: hERG channel inhibition, whole-cell patch clamp in HEK293 cells. The class given is cell-based. Conditions: HEK293 cells stably transfected with hERG cDNA. On the technique in general: hERG is a cardiac potassium channel; its block is linked to QT prolongation.
The nature of series [4]: Plasma protein binding. In kind it is in vitro ADME.
Series [5] relates to HIV-1 mediated cell-cell fusion. Nature of the series: HIV-1 mediated cell-cell fusion inhibition assay. The class given is cell-based. As to conditions: HL2/3 effector and TZM-bl target cells.
Series [6] is described as follows: Metabolic stability in human liver microsomes. Conditions: 3 μM. In general terms: Microsomes from liver hold many membrane-bound enzymes, among them those of drug oxidation.
In series [7] the test system is VSV-G. In kind it is cell-based. As to conditions: U87-CD4-CXCR4 cells.
A short description of series [8]: Cytotoxicity in U87-CD4-CXCR4 cells. In kind it is cell-based. Conditions: human.
A short description of series [9]: Cytotoxicity in TZM-bl cells. As to conditions: human. The class given is cell-based.
Series [10] has as its system HIV-1HXB2. In kind it is cell-based.
Series [11] has as its system HIV-1IIIB. Nature of the series: Multi-cycle infection assay in MT-2 cells.
Series [12] concerns TZM-bl cells. Nature of the series: Cytotoxicity in TZM-bl cells. In kind it is cell-based. As to conditions: read-out: Toxicity CC50 (TZM-bl).
The subject of series [13] is MT-2 cells. Nature of the series: Cytotoxicity in MT-2 cells. In kind it is cell-based. As to conditions: read-out: Toxicity CC50 (MT-2).
The mark [14] stands for this setting: pH 7.4, Solubility Range when prepared at 500 μM, With 5% DMSO, pH7.4 (first line).
Where [15] appears, read: pH 7.4, aqueous solubility, DMSO concentration of 2%.
The mark [16] stands for this setting: read-out: HIV-1IIIB IC50, MT-2 cells, multi-cycle, mean ± SD, n=3.

hERG potassium channel, sequence (Q12809 whole entry): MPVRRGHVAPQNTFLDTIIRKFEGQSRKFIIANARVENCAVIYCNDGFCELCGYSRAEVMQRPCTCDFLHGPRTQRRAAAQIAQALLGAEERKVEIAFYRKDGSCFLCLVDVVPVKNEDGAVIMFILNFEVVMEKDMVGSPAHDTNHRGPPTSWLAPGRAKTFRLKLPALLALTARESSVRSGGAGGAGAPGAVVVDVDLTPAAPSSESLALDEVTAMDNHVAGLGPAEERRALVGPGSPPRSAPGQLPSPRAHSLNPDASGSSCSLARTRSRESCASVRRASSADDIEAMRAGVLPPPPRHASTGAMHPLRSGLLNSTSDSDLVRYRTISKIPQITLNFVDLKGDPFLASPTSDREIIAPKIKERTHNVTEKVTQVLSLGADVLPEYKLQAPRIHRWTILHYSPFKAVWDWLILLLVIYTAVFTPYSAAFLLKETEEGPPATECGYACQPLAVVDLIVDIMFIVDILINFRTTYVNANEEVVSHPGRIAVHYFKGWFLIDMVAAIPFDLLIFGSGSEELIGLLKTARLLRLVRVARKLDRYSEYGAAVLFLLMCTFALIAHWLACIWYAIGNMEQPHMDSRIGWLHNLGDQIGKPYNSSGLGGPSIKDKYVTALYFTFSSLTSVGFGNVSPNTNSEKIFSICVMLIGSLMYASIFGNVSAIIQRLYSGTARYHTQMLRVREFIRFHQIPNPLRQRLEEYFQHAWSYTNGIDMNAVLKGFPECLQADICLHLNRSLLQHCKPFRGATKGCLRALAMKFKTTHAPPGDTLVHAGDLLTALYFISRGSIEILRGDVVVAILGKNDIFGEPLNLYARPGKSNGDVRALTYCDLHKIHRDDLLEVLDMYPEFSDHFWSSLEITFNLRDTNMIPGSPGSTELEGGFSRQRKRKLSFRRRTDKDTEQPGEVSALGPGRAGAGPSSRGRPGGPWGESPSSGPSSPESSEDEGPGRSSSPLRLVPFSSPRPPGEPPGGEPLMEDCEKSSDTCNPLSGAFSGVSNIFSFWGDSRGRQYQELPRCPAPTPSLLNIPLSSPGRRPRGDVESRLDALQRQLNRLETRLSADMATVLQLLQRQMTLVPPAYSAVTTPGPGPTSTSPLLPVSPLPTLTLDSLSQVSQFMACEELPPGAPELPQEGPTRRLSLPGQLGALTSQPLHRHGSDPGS

What is called IC50 is the midpoint of a concentration-inhibition curve. One may read the solubility as the dissolved amount per volume that the medium holds. Read a low solubility as a poorly soluble substance. Regarding `COc1cnc(-n2cnc(C)n2)c2[nH]cc(C(=O)C(=O)N3CCN(C(=O)c4ccccc4)CC3)c12` [BMS-626529, reference compound], the 50% inhibitory concentration (IC50) in [1] is about 8 nM. In addition, in series [2] (setting [14]), the solubility at 90 min was 100 µM to 500 µM and 47.3 µg/mL to 237 µg/mL.
Usually inhibition stands for the change of the read-out against control, counted positive when it falls. `COc1cc(N)c(Cl)cc1C(=O)NC1CCN(CCCOc2ccc(F)cc2)CC1OC` (centres unmarked) [Cisapride] came in with an inhibition at 0.09 µM in [3] of 85.2 ± 2.3%.
The CC50 is the concentration that lowers cell viability or growth by half. Regarding `NCC(NC(=O)c1ccc(-c2cc(F)c(Cl)c(F)c2)[nH]1)c1nc(CO)cs1` (centres unmarked) [Compound 39, N-(2-Amino-1-(4-(hydroxymethyl)thiazol-2-yl)ethyl)-5-(4-chloro-3,5-difluorophenyl)-1H-pyrrole-2-carboxamide], the “bound to proteins in human plasma” value in series [4] was over 99%. In addition, the “IC50 HIV-1 mediated cell-cell fusion” value in [5] is “active at slightly higher concentration than NBD-556 and 55”. For the same molecule, in series [6], the “parent compound remaining at 120 min (% of 0 min)” value is recorded as 88.5 to 90.4%. In series [7], the “Control VSV-G IC50” value was “poorly active”. Also, the solubility at 90 min was about 206 µg/mL in [2] (setting [14]) and 100 to 500 µM in series [2] (setting [15]). In [8], the CC50 at 3 days was 39.3 ± 2.3 µM.
Take `NC[C@@H](NC(=O)c1ccc(-c2ccc(C(F)(F)F)cc2)[nH]1)c1ncc(CO)s1` [Compound 48, N-(2-Amino-1-(5-(hydroxymethyl)thiazol-2-yl)ethyl)-5-(4-(trifluoromethyl)phenyl)-1H-pyrrole-2-carboxamide]: in series [5], the “IC50 HIV-1 mediated cell-cell fusion” value was “active at slightly higher concentration than NBD-556 and 55”. This molecule also yielded a half-maximal cytotoxic concentration (CC50) at 72 h in series [9] of 42.4 ± 1 µM. Moreover, the “Control VSV-G IC50” value in [7] was “poorly active”. Also, half-maximal cytotoxicity in series [8] (CC50 at 3 days) was put at 46.4 ± 4.7 µM.
`NC[C@H](NC(=O)c1ccc(-c2ccc(C(F)(F)F)cc2)[nH]1)c1nc(CO)cs1` [Compound 49, N-(2-Amino-1-(4-(hydroxymethyl)thiazol-2-yl)ethyl)-5-(4-(trifluoromethyl)phenyl)-1H-pyrrole-2-carboxamide]: the “fold enhancement in antiviral potency (IC50) after CH2OH switch C5 to C4” value in series [10] (HIV-1HXB2 in TZM-bl cells, 39 vs NBD-14107, 49 vs 47, 55 vs 53) is ~ 3.4 fold.
Turning to `CNC[C@H](NC(=O)c1ccc(-c2ccc(C(F)(F)F)cc2)[nH]1)c1nc(CO)cs1` [Compound 51, N-(1-(4-(Hydroxymethyl)thiazol-2-yl)-2-(methylamino)ethyl)-5-(4-(trifluoromethyl)phenyl)-1H-pyrrole-2-carboxamide], in series [11] (Human immunodeficiency virus 1, MT2, read-out: HIV-1IIIB IC50), the IC50 came to 100 nM.
With `NCC(NC(=O)c1ccc(-c2ccc(C(F)(F)F)c(F)c2)[nH]1)c1nc(CO)cs1` (centres unmarked) [Compound 55, N-(2-Amino-1-(4-(hydroxymethyl)thiazol-2-yl)ethyl)-5-(3-fluoro-4-(trifluoromethyl)-phenyl)-1H-pyrrole-2-carboxamide], the “bound to proteins in human plasma” value in series [4] is listed as over 99%. Further, the “parent compound remaining at 120 min (% of 0 min)” value in series [6] fell in the range of 88.5 to 90.4%. In series [7], the “Control VSV-G IC50” value is “poorly active”. The solubility at 90 min in series [2] (setting [14]) was 100 µM to 500 µM and 42.4 µg/mL to 214 µg/mL; in series [2] (setting [15]), 100 to 500 µM.
Consider “N-(2-Amino-1-(5-(hydroxymethyl)oxazol-2-yl)ethyl)-5-(4-chloro-3,5-difluorophenyl)-1H-pyrrole-2-carboxamide [Compound 66]”, for which the CC50 came out at 30.9 ± 1.7 µM in series [12] and 44.7 ± 1.5 µM in series [13]. Moreover, the 50% inhibitory concentration (IC50) in series [10] (read-out: HIV-1HXB2 IC50, TZM-bl cells, single-cycle, mean ± SD, n=3) is 760 ± 100 nM; in [11] (setting [16]), 900 ± 100 nM.
Regarding “N-(2-Amino-1-(5-(hydroxymethyl)oxazol-2-yl)ethyl)-5-(4-chloro-3,5-difluorophenyl)-1H-pyrrole-2-carboxamide [Compound 67]”, the results for the cytotoxic concentration (CC50) in series [12] and in series [13] were 27.7 ± 0.5 µM and 26.5 ± 2 µM, respectively. For the same molecule, the 50% inhibitory concentration (IC50) in series [11] (setting [16]) turned out to be 800 ± 100 nM.
Take “N-(2-Amino-1-(5-(hydroxymethyl)thiazol-2-yl)ethyl)-5-(3,5-difluoro-4-(trifluoromethyl)-phenyl)-1H-pyrrole-2-carboxamide [Compound 57]”: the half-maximal cytotoxic concentration (CC50) was determined as 23 ± 0.6 µM in [12] and 14.3 ± 0.6 µM in series [13].
On the same counts, the results for “N-(2-Amino-1-(5-(hydroxymethyl)thiazol-2-yl)ethyl)-5-(3,5-difluoro-4-(trifluoromethyl)-phenyl)-1H-pyrrole-2-carboxamide [Compound 58]” are 23.5 ± 0.5 µM and 15.5 ± 0.45 µM.
